In patent publication US5446157A, “Boron difluoride compounds useful in photodynamic therapy and production of laser light” (priority 1993, dated 1995):
Values joined by “and” are separate entries in the source; they are usually repeats but may differ in a detail not shown here. Equal values may be shown once. “Also recorded” adds a separate entry of the source. Read-outs that look alike come from different tables or passages of the source.

What was measured:
[1] = Laser characteristics of pyrromethene-BF2 complexes under flashlamp excitation (Table IV); conditions: for Life: DMA/MeOH
[2] = P-BF2 dyes dispersed in acrylic co-polymer (solid-state laser)
Text: Any laser dye of the present invention may be substituted for the dye in any of the examples of that incorporated patent. The matrix generally includes solid polymeric host laser rods prepared using bulk polymerization of acrylic acid ester comonomers.

[3] = Ref [2], cited from earlier work; for λmax: 5 × 10^-6 M in ethanol
[4] = cited from earlier work
[5] = Photostability under irradiation with 250 watt sun lamp; type: physicochemical
Description: In addition, experiments were conducted in order to determine the photostability of the product of Example I. A solution was prepared by mixing 0.1 g of the product with 50 ml of dichloromethane solvent. The solution was placed in a 100 ml round bottom flask and irradiated with light from a sun lamp (250 watts at a distance of approximately 8 inches from the flask). […] However, another solution was made by combining 0.1 g of product in 250 ml of CH3 OH and 10 ml of CH2 Cl2. Addition of the CH2 Cl2 was undertaken to obtain complete dissolution. The solution was placed in a […] and irradiated as described above. […] Thus, the use of different solvents will cause a variation in both the character and duration of fluorescence.
In addition, a further test was conducted in order to determine the photostability of the product. Specifically, 2.0 mg of the product in a 100 ml round bottom flask was dissolved in 50 ml of H2 O. The solution was then irradiated by light from a 250 watt sun lamp placed approximately 8 inches from the flask. UV spectral data was recorded periodically as shown below in Table III.

[6] = Solubility/fluorescence in various solvents (Tables I, II); type: physicochemical
Description: In addition, tests were conducted on the product in order to determine its solubility/fluorescence in various solvents. One property of the compositions described herein involves a variable degree of solubility/fluorescence relative to the solvents with which they are combined. Data showing a variety of different solvents combined with the product of Example I is presented below in Table I:
As in Example I, tests were conducted on the product in Example II in order to determine its fluorescence in various solvents. Data showing a variety of different solvents combined with the product of Example II is presented below in Table II: […]

[7] = Fluorescence (λf, quantum yield); type: physicochemical; conditions: for λf: 2 × 10^-4 M in ethanol; for .PHI.f (fluorescence quantum yield): ethanol, excitation 450 and 460 nm, reference acridine orange
Description: Instruments for spectroscopic measurements included: Perkin-Elmer 1600 FTIR, Varian Gernini 300 NMR, Hewlett-Packard 5985 (70 eV) GC-MS, Cary 17 (UV), and Perkin-Elmer LS-5B Luminescence spectrometer. A dye laser was constructed and operated in the non-flowing (static) mode and had no tuning capability. […] Laser energy outputs were measured with an accuracy of ±5% by a Scientech 365 power and energy meter.
(§1) Light absorption, luminescence, and laser activity properties for the dyes 7 are described in Table VI. Each recorded UV absorption was restricted to the highest wave length. Fluorescence quantum yields of the dyes were determined for ethanol solutions with excitation at 450 and 460 nm by reference to acridine orange, .PHI.0.46, in ethanol; for the dye 7p the reference was R-6G, <P 0.90. Melting points were obtained from a Mel-Temp II device and were uncorrected. The solvent for ^1 H NMR spectra was chloroform-d with tetramethylsilane as an internal standard. Elemental analyses were obtained from Midwest Micro Lab, Indianapolis, Ind. and Galbraith Laboratories, Inc., Knoxville, Tenn. Solvents were removed by rotary evaporation under reduced pressure unless indicated otherwise. Column chromatography was performed on silica gel. Molecular weights were confirmed by EI-MS for the pyrrole 4j 193 and for laser dyes 7d 346, 7e 374, 7g 374, 7i 342, 7j 314 and 7x 360. IR absorption data satisfactorily supported structure assignments for the laser dyes 7.
^[b] 2 × 10^-4 M in ethanol except where noted otherwise.

[8] = Photostability in methanol under flashlamp excitation pulses
[9] = UV light absorption (λmax, log ε); type: physicochemical; conditions: for λmax: 5 × 10^-6 M in ethanol; for log ε: solvent as for λmax (ethanol except where noted)
Description: as §1, with “Each” for “Light absorption, luminescence, and laser activity properties for the dyes 7 are described in Table VI. Each”, “0.90. […]” for “0.90.”, “gel.” for “gel. Molecular weights were confirmed by EI-MS for the pyrrole 4j 193 and for laser dyes 7d 346, 7e 374, 7g 374, 7i 342, 7j 314 and 7x 360. IR absorption data satisfactorily supported structure assignments for the laser dyes 7.”
5 × 10^-6 M in ethanol except where noted otherwise.

[10] = 2 × 10^-4 M in ethanol, Ref [2]

With `CCC1=C2C(C)=CC(C)=[N+]2[B-](F)(F)n2c(C)cc(C)c21` [III, 4,4-difluoro-1,3,5,7-tetramethyl-8-ethyl-4-bora-3a,4a-diaza-s-indacene] the “Eo after 1000 S at 25 J” value ([1]; footnote to Life, after 1000 S at 25 J) was ~ 80 mJ.

For `CCC1=C(C)C2=C(C)c3c(C)c(CC)c(C)n3[B-](F)(F)[N+]2=C1C` [Compound 7c, 1,3,5,7,8-pentamethyl-2,6-diethylpyrromethene-BF2 complex], the “solubility in the polymer matrix” value [2] is given as “particularly soluble”, the λmax [3] is given as 517 nm and the “log ε” value [3] is given as 4.81. For the same compound, the λf [4, 10] was 546 nm and the “.PHI.f” value ([4]; Ref [2]) was 0.83.

For `CC1=CC(C)=[N+]2C1=C(C)c1c(C)cc(C)n1[B-]2(F)F` [Compound 7a, 4,4-difluoro-1,3,5,7,8-pentamethyl-4-bora-3a,4a-diaza-s-indacene], the Life [1] is given as about 50 kJ/L, the λmax [3] is given as 493 nm and the “log ε” value [3] is given as 4.90. The “visual change in fluorescence (photostability)” value ([5]; 0.1 g in 50 ml dichloromethane, sun lamp, 22 days) was “No visual change in fluorescence was observed”, the “fluorescence after irradiation (photostability)” value ([5]; 0.1 g in 250 ml CH3 OH and 10 ml CH2 Cl2, sun lamp, 8 days) was “no fluorescence was observed” and the “Color of Fluorescence, Room light” value ([6]; (CF3)2 CHOH) was “green”. For the same compound, the “Color of Fluorescence, UV” value ([6]; (CF3)2 CHOH) was “green”, the “Color of Solution” value ([6]; (CF3)2 CHOH) was “yellow” and the Solubility ([6]; (CF3)2 CHOH) was “soluble”. For the same compound, the “Color of Fluorescence, Room light” value ([6]; CClF2 --CFCl2) was “green”, the “Color of Fluorescence, UV” value ([6]; CClF2 --CFCl2) was “green” and the “Color of Solution” value ([6]; CClF2 --CFCl2) was “yellow”. For the same compound, the “Color of Solution” value ([6]; CF3 CH2 OH) was “green”, the Solubility ([6]; CH2 Cl2) was “soluble” and the Solubility ([6]; H2 O) was “insoluble”. For the same compound, the “wavelength of incident light that produced the greatest fluorescence” value ([7]; FIG. 2, in ethanol) was 500-550 nm, the λf [4, 10] was 519 nm and the “.PHI.f” value ([4]; Ref [2]) was 0.99.

For `CCN=c1cc2oc3cc(NCC)c(C)cc3c(-c3ccccc3C(=O)OCC)c-2cc1C` [Compound R-6G, reference compound], the photostability in methanol [8] is given as 1500 pulses and the “fluorescence quantum yield of reference” value ([4]; reference standard) is given as 0.90.

In the case of `CC1=C(C)C(C)=[N+]2C1=C(C)c1c(C)c(C)c(C)n1[B-]2(F)F` [Compound 7b], the λmax [3] is given as 518 nm, the “log ε” value [3] is given as 4.67 and the λf [4, 10] is given as 546 nm. For the same compound, the “.PHI.f” value ([4]; Ref [2]) was 0.70.

With `CCC1=C(CC)C(C)=[N+]2C1=C(C)c1c(CC)c(CC)c(C)n1[B-]2(F)F` [Compound 7k, 1,2,6,7-tetraethyl-3,5,8-trimethylpyrromethene BF2 complex] the λmax [9] was 521 nm, the “log ε” value [9] was 4.89 and the λf [7] was 554 nm. For the same compound, the “.PHI.f (fluorescence quantum yield)” value [7] was 0.75.

`CCN=c1cc2oc3cc(NCC)c(C)cc3c(-c3ccccc3C(=O)OCC)c-2cc1C` [Rhodamine 590, reference compound] showed a Life [1] of 15 kJ/L.

For `CC1=[N+]2C(=Cc3c(-c4ccccc4)c(-c4ccccc4)c(C)n3[B-]2(F)F)C(c2ccccc2)=C1c1ccccc1` [Compound 7v, 1,2,6,7-tetraphenyl-3,5-dimethylpyrromethene-BF2 complex], the λmax [9] was 552 nm, the “log ε” value [9] was 4.91 and the λf [7] was 590 nm. The “.PHI.f (fluorescence quantum yield)” value [7] was 0.69.

In the case of `CC1=C2C3=C(CCC3)C(C)=[N+]2[B-](F)(F)n2c(C)c3c(c21)CCC3` [Compound 7j, 1,2,6,7-bistrimethylene-3,5,8-trimethylpyrromethene-BF2 complex], the λmax [9] was 512 nm, the “log ε” value [9] was > 4.8 and 4.82 and the λf [7] was 535 nm.

In the case of `CCC1=C(C)C2=C(C(C)C)c3c(C)c(CC)c(C)n3[B-](F)(F)[N+]2=C1C` [Compound 7p, 1,3,5,7-tetramethyl-2,6-diethyl-8-isopropylpyrromethene-BF2 complex], the λmax [9] was 527 nm, the “log ε” value [9] was 4.84 and the “fluorescence” value [7] was “large reduction in fluorescence; also recorded: absence of fluorescence”. The λf [7] was 562 nm and the “.PHI.f” value ([7]; with reference to R-6G .PHI. 0.90) was 0.07.

In the case of `c1ccc2cc3ccccc3cc2c1` [anthracene, reference compound], the λf ([4]; literature) is given as 400 nm.
